The assay concerns human sebocytes. The assay can be described thus: Sebum suppression: 14C-acetate incorporation in cultured human sebocytes. The assay is classed as cell-based. The note with it: for activity at 1 µM / activity at 0.1 µM / activity at 10 µM / activity at 100 µM: Homo sapiens. Here is the method: Compounds A through H were tested for their potential to suppress sebum expression, alone or in the presence of a retinoid.
Secondary cultures of human sebocytes obtained from an adult […] were grown in 48-well tissue culture plates (Costar Corp.; Cambridge, Mass.) or 96-well tissue culture plates (Packard Co.; Meriden, Conn.) until confluent. Sebocyte growth medium consisted of Clonetics Keratinocyte Basal Medium (KBM) supplemented with 14 μg/ml bovine pituitary extract, 0.4 μg/ml hydrocortisone, 5 μg/ml insulin, 10 ng/ml epidermal growth factor, 1.2×10−10 M cholera toxin, 100 units/ml penicillin, and 100 μg/ml streptomycin. All cultures were incubated at 37° C. in the presence of 7.5% CO2. Medium was changed three times per week.
On the day of experimentation, the growth medium was removed and the sebocytes washed three times with sterile Dulbecco's Modified Eagle Medium (DMEM; phenol red free). Fresh DMEM was added to each sample (duplicates, triplicates, or quadruplicates depending on the experiment) with 5 microliter of test agent solubilized in ethanol either alone or in the presence of one or 10 micromolar of retinol. Controls consisted of addition of ethanol alone, retinol alone, or phenol red, which has estrogen-like activity and is included as a positive control.
Each plate was returned to the incubator for 20 hours followed by the addition of 14C-acetate buffer (5 mM final concentration, 56 mCi/mmol specific activity). Sebocytes were returned to the incubator for four hours after which each culture was rinsed three times with phosphate buffered saline to remove unbound label. Radioactive label remaining in the sebocytes was harvested and counted using a Beckman scintillation counter.

[1] abbreviates: 10 μM test compound + 10 μM Retinol.
[2] abbreviates: 0.1 μM test compound + 1 μM Retinol, read-out: % of Control.
[3] abbreviates: 0.1 μM test compound + 10 μM Retinol, read-out: % of Control.
The mark [4] stands for this setting: 0.1 μM test compound alone, 14C-acetate label remaining in sebocytes, 20 h + 4 h, read-out: % of Control.
Where [5] appears, read: 1 μM test compound alone, read-out: % of Control.
Setting [6] is: 10 μM test compound + 10 μM Retinol, read-out: % of Control.
Setting [7] is: 1 μM test compound + 1 μM Retinol, read-out: % of Control.
Setting [8] is: 1 μM test compound + 10 μM Retinol, read-out: % of Control.
Where [9] appears, read: 10 μM test compound alone, read-out: % of Control.
[10] abbreviates: 100 μM test compound + 1 μM Retinol, read-out: % of Control.
[11] abbreviates: 100 μM test compound + 10 μM Retinol, read-out: % of Control.
The mark [12] stands for this setting: 100 μM test compound alone, read-out: % of Control.
Where [13] appears, read: 10 μM test compound + 1 μM Retinol, read-out: % of Control.
The mark [14] stands for this setting: 1 μM test compound + 10 μM Retinol.

Values joined by “and” are separate entries in the source; they are usually repeats but may differ in a detail not shown here. Identical values can stand only once. Like-named read-outs stand apart in the source and are kept apart here.

Consider `CC1=C(/C=C/C(C)=C/C=C/C(C)=C/CO)C(C)(C)CCC1` [Retinol, retinol, reference compound], for which the “% of Control” value is 98.1% (1 μM Retinol alone (control)) and 105.8% (10 μM Retinol alone (control)). Also, the activity at 1 µM (1 μM Retinol alone (control)) came out at 96.5%.

In the case of `O=C(CC1c2ccccc2-c2ccccc21)N1CCC(O)(c2ccc(Cl)cc2)CC1` [Compound F], the “% of Control” value by setting is: (1 μM test compound alone, 1 µM) 90.2%; under setting [1], 27.0%. For the same molecule, the activity at 0.1 µM under setting [2] was 92.8%, the activity at 0.1 µM under setting [3] was 83.6% and the activity at 0.1 µM under setting [4] was determined as 95.8%. Under setting [5], the activity at 1 µM is 72.3%. In addition, under setting [6], the activity at 10 µM was 16.7%.

Turning to `O=C(Nc1ccc(OC(F)(F)F)cc1)N1c2ccccc2CCc2ccccc21` [Compound B], the activity at 1 µM was determined as 104% under setting [7], 65.7% under setting [8] and 94.1% under setting [5]. In addition, under setting [9], the activity at 10 µM was determined as 89.4%. The activity at 100 µM under setting [10] is 0.8%, the activity at 100 µM under setting [11] stood at 0.6% and the activity at 100 µM under setting [12] was 1.7%.

`CC1=C(Cl)CCC=C1NC(=O)N1c2ccccc2CCc2ccccc21` [Compound D]: the “% of Control” value (1 μM test compound + 1 μM Retinol) came out at 96.9%. The activity at 1 µM is, setting by setting: under setting [8], 74.6%; under setting [5], 77.6%. The activity at 10 µM by setting is: under setting [13], 97.1%; under setting [6], 76.8%; under setting [9], 82.7%. For the same molecule, the activity at 100 µM was 1.1% under setting [10], 0.5% under setting [11] and 1.8% under setting [12].

`O=C(Nc1ccc(O)cc1)N1c2ccccc2CCc2ccccc21` [Compound C]: the “% of Control” value is given as 48.5% under setting [14] and 66.4% (1 μM test compound alone, 1 µM). The activity at 0.1 µM runs as follows: under setting [2], 95.1%; under setting [3], 84.6%; under setting [4], 103%. Also, the activity at 10 µM under setting [13] was 37.4% and the activity at 10 µM under setting [9] amounted to 56.1%. For the setting “in the presence of retinol / a retinoid, versus compound alone”, the “sebum suppressive activity when combined with retinol” value was “improved activity”.

Consider `O=S1(=O)OC(c2ccc(O)cc2)(c2ccc(O)cc2)c2ccccc21` [Phenol Red, phenol red, reference compound], for which the “% of Control” value runs as follows: (28 μM Phenol Red (positive control)) 95.3% and 74.7%; (280 μM Phenol Red (positive control)) 15.9%.

Turning to `CC(O)c1cccc(NC(=O)N2c3ccccc3CCc3ccccc32)c1` (stereo not shown) [Compound A], the activity at 1 µM is, setting by setting: under setting [7], 82.8%; under setting [8], 93.2%; under setting [5], 85.7%. In addition, under setting [9], the activity at 10 µM is 91.3%. In addition, the activity at 100 µM under setting [10] amounted to 1%, the activity at 100 µM under setting [11] was 0.6% and the activity at 100 µM under setting [12] was determined as 2.1%.

With `CCCN(CCO)C(=O)CC1c2ccccc2-c2ccccc21` [Compound H], the “% of Control” value under setting [14] is 72.8% and 99.9%; the “% of Control” value (1 μM test compound alone, 1 µM) is 74.8% and 102.7%; the “% of Control” value under setting [1] was 80.2% and 100.4%; the “% of Control” value (10 μM test compound alone, 10 µM) is 74.6% and 111.7%; the “% of Control” value (100 μM test compound + 10 μM Retinol) amounted to 44.4%; the “% of Control” value (100 μM test compound alone, 100 µM) came to 73.6%. Moreover, the activity at 1 µM under setting [7] came to 86.4%. Moreover, under setting [13], the activity at 10 µM was determined as 76.6%. Also, the activity at 100 µM runs as follows: under setting [10], 67.6%; under setting [11], 27.2%; under setting [12], 79.8%.

As to `O=C(CC1c2ccccc2-c2ccccc21)N1CCC(O)(c2ccccc2)CC1` [Compound G], the “% of Control” value (1 μM test compound alone, 1 µM) is 70.7%. Also, under setting [9], the activity at 10 µM stood at 67.7%. In addition, the activity at 100 µM is, setting by setting: under setting [11], 0.6%; under setting [12], 2%.

For the origin of these results see patent US20020028804A1, “Cosmetic compositions containing substituted iminodibenzyl or fluorene derivatives” (Unilever Home & Personal Care USA, Division of Conopco, Inc., priority 2000, published 2002).
